{
  "source": "patent US6534039B2",
  "about": "“Extended organic cobalt and nickel magnetic complexes” (priority 2000, dated 2003)",
  "key": {"[1]": {"tested_on": "brain tumor (N32 and F98)", "assay": "MRI of brain tumors in rats with contrast agent", "assay_type": "in vivo, rat", "excerpt": "Rats were implanted with tumors by stereotactic infusion of tumor cells into the brain.\nVarious MRI imaging modes were used in the analysis: T1-weighted, T2-weighted, and T2*-weighted.\nRats weighing about 350 g, seeded with either F98 or N32 cells were used for tumor imaging. A<0.5 mm burr hole was drilled through the skull of the anesthetized rats at the point of inoculation. Tumors were initiated by inoculating one microliter of culture medium, containing 10,000 cultured cells, 4-5 mm deep into the left striatum, at a point 4 mm to the left of the midline in the (serrated) coronal suture. A 27-gauge needle fitted with a depth-limiting plastic collar to ensure cell injection 4-5 mm beneath the skull was connected to a Hamilton microsyringe via flexible tubing. Following a 30-second infusion of the cells, another 30 seconds was taken to allow the cells to settle before removing the needle. For F98 tumor animals, death ensued 24+ days after inoculation.\nMRI was performed at day 16 after tumor cell implantation. […] The rats were immediately positioned on a support and MRI was performed in a 1.5 tesla whole-body clinical scanner (Siemens Vision, Germany) with a human extremity (knee) coil. High-resolution turbo spin-echo sagittal imaging was used for selecting slice position with imaging parameters as follows. […]"}, "regions of wound healing": {"tested_on": "regions of wound healing", "assay": "Wound healing delineation by MRI", "assay_type": "in vivo, rat", "conditions": "site opened two weeks prior for injecting tumor cells", "procedure": "MRI was performed at day 16 after tumor cell implantation. The animals were anesthetized and injected interperitoneally with either 200 microliters of gadodiamide (287 mg gadodiamide/ml) (Omniscan, Nycomed, Princeton, N.J.) or 200 microliters of the extended cobalt complex (containing 10 mg Co/ml ±30%). The rats were immediately positioned on a support and MRI was performed in a 1.5 tesla whole-body clinical scanner (Siemens Vision, Germany) with a human extremity (knee) coil. High-resolution turbo spin-echo sagittal imaging was used for selecting slice position with imaging parameters as follows. For T2 weighted images: repetition time (TR)=3000 msec; echo time (TE)=25 msec; field of view (FOV)=100×100 mm; matrix size=256×256; image slice thickness (TH)=2 mm. Tumor images were collected at various times after a single interperitoneal injection. Imaging times were 3 min/scan and resolution was […]. Imaging covered a 30 min period after injection.\nThis is surprising as the vasculature and components of a wounded region differ from normal tissue only subtly, and these differences are not highlighted by the gadodiamide reagent. This type of imaging can be used to detect internal damage, internal bleeding, or other forms of lesions with MRI using the cobalt complex as contrast agent.\nMethods were performed as in Example 8."}, "[2]": {"conditions": "rat, in vivo, ip"}},
  "data": [
    {"smiles": "CNC(=O)CN(CCN(CCN(CC(=O)[O-])CC(=O)NC)CC(=O)[O-])CC(=O)[O-].[Gd+3]", "note": "[gadodiamide]", "values": [
      {"measurement": "tumor visibility in all MRI imaging modes", "setting": "[1]; T1-weighted, T2-weighted and T2*-weighted", "result": "no trace of any tumors was evident"},
      {"measurement": "enhancement / imaging of brain tumor by MRI", "setting": "[1]; rats with N32 or F98 tumor, 200 microliters interperitoneally, 1.5 tesla", "result": "No enhancement"},
      {"measurement": "image contrast at wound site by MRI", "setting": "regions of wound healing", "result": "No such contrast was evident"},
      {"measurement": "ALBm (albumen)", "setting": "[2]", "result": 1.5, "unit": "g/dL"},
      {"measurement": "ALP (alkaline phosphatase)", "setting": "[2]", "result": 202, "unit": "IU/L"},
      {"measurement": "ALT (alanine transaminase)", "setting": "[2]", "result": 62, "unit": "IU/L"},
      {"measurement": "AST (aspartate transaminase)", "setting": "[2]", "result": 183, "unit": "IU/L"},
      {"measurement": "BUNm (blood urea nitrogen)", "setting": "[2]", "result": 16, "unit": "mg/dL"},
      {"measurement": "CK (creatine kinase)", "setting": "[2]", "result": 820, "unit": "IU/L"},
      {"measurement": "CL (chloride)", "setting": "[2]", "result": 101, "unit": "mEq/L"},
      {"measurement": "CO2 (carbon dioxide)", "setting": "[2]", "result": 30, "unit": "mEq/L"},
      {"measurement": "GLUCm (glucose)", "setting": "[2]", "result": 177, "unit": "mg/dL"},
      {"measurement": "K (potassium)", "setting": "[2]", "result": 5.5, "unit": "mEq/L"},
      {"measurement": "NA (sodium)", "setting": "[2]", "result": 139, "unit": "mEq/L"},
      {"measurement": "liver enzyme activity compared to the control", "setting": "[2]", "result": "slight increase"}
    ]}
  ]
}
